The subject of the assay is Human Umbilical Vein Endothelial Cells (HUVECs). As to the kind of experiment: Inhibition against invasive tube formation by vascular endothelial cells in response to stimulation by angiogenic factor mixture. Also on record: key: the number of tubes formed in the absence of the test substance was designated as +++; scored on the 5-level scale of +++, ++, +, +/−, −; scored on the 5-level scale of +++, ++, +, +/−, −; scored on the 5-level scale of +++, ++, +, +/−, −; − was assigned if absolutely no tubes formed. As to conditions: HUVEC on fibrin gel, EGF/FGF2/VEGF/HGF/TNF-α mixture, 6th day, MTT staining; for number of tubes formed in the fibrin gel (score) at 0.01 μM: test substance 0.01 μM; for number of tubes formed in the fibrin gel (score) at 0.1 μM: test substance 0.1 μM; for number of tubes formed in the fibrin gel (score) at 1.0 μM: test substance 1.0 μM. It is filed as cell-based. In a few lines:
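HUVECs seeded on fibrin gel in Transwells were cultured with compound plus EGF, FGF2, VEGF, HGF and TNF-α in serum-free medium at 37 °C; medium with factors and compound was renewed on days 2 and 4. On day 6, MTT-stained tubes were counted microscopically and scored on a five-level scale from +++ (no-compound control) to −.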

This note sets out measurements from patent publication US7253286B2, “Nitrogen-containing aromatic derivatives” (Eisai Co., Ltd, priority 2000, dated 2007).

`N#CCCCOc1cc2nccc(Oc3ccc(NC(=O)Nc4ccc(F)cc4F)c(F)c3)c2cc1C#N` [Example 55, N-(4-(6-Cyano-7-(3-cyanopropoxy)-4-quinolyl)oxy-2-fluorophenyl)-N′-(2,4-difluorophenyl)urea]: the “number of tubes formed in the fibrin gel (score) at 0.01 μM” value (“number of tubes formed … at 0.01 μM” below) was “+++”, the “number of tubes formed in the fibrin gel (score) at 0.1 μM” value (“number of tubes formed … at 0.1 μM” for short) is “+/−” and the “number of tubes formed in the fibrin gel (score) at 1.0 μM” value (“number of tubes formed … at 1.0 μM” for short) is “+/−”.
`COCCOc1cc2nccc(Oc3ccc(NC(=O)Nc4ccc(F)cc4)c(F)c3)c2cc1C#N` [Example 100, N-(4-(6-Cyano-7-(2-methoxyethoxy)-4-quinolyl)oxy-2-fluorophenyl)-N′-(4-fluorophenyl)urea]: the “number of tubes formed … at 0.01 μM” value is “++”, the “number of tubes formed … at 0.1 μM” value is reported as “+/−” and the “number of tubes formed … at 1.0 μM” value was “+/−”.
As to `CCNC(=O)n1ccc2cc(Oc3ccnc4cc(OC)c(C(N)=O)cc34)ccc21` [Example 316, 6-Carbamoyl-4-(1-ethylcarbamoyl-1H-indol-5-yloxy)-7-methoxyquinoline], the “number of tubes formed … at 0.01 μM” value is given as “+/−”, the “number of tubes formed … at 0.1 μM” value is given as “−” and the “number of tubes formed … at 1.0 μM” value was “−”.
`NC(=O)c1cc2c(Oc3ccc(NC(=O)NC4CC4)c(F)c3)ccnc2cc1OCCCN1CCOCC1` [Example 374, 4-(4-(Cyclopropylaminocarbonyl)amino-3-fluorophenoxy)-7-(3-(4-morpholino)propoxy)-6-quinolinecarboxamide]: the “number of tubes formed … at 0.01 μM” value is “+/−”, the “number of tubes formed … at 0.1 μM” value is listed as “−” and the “number of tubes formed … at 1.0 μM” value is reported as “−”.
On to `COc1cc2nccc(Oc3ccc(NC(=O)NC4CC4)c(Cl)c3)c2cc1C(=O)NCCS(C)(=O)=O` [Example 404, N6-(2-(Methylsulfonyl)ethyl)-4-(3-chloro-4-(((cyclopropylamino)carbonyl)amino)phenoxy)-7-methoxy-6-quinolinecarboxamide], for which the “number of tubes formed … at 0.01 μM” value is “−”, the “number of tubes formed … at 0.1 μM” value is recorded as “−” and the “number of tubes formed … at 1.0 μM” value is recorded as “−”.
